Measurements published in patent US12084431B2, “Pharmaceutical salts of pyrimidine derivatives and method of treating disorders” (ARIAD Pharmaceuticals, Inc., priority 2018, dated 2024).
Like-named read-outs stand apart in the source and are kept apart here.

Key:
[1] = Phase 1/2 study, safety (adverse events, dose limiting toxicities, MTD)
Procedure: Patients with advanced NSCLC refractory to standard therapy received daily oral doses (5-120 mg) of Compound (A) in the dose-escalation phase. Compound (A) was provided as polymorphic Form-I of the succinate salt of Compound (A). Compound (A) was formulated as a drug-in-capsule with no excipients and administered orally. Preliminary antitumor activity (by RECIST v1.1), safety and pharmacokinetics are reported for patients receiving at least one dose.
As part of the same phase ½ study as described in Example 12, a dose escalation study was performed. […] 2018.
The phase 2 portion of the study was initiated to expand the study in two 160 mg QD cohorts (EGFR exon 20 mutant NSCLC patients with or without brain metastases) and continue to enroll more patients in the 120 mg cohort.

[2] = tested on: advanced NSCLC (EGFR exon 20 insertions); assay: Phase 1/2 study, antitumor activity / disease assessment by RECIST v1.1; type: in vivo, human
Procedure: 52 patients were enrolled as of 30 Jan. 2018.
Disease stabilization started to be reported at the 40 mg QD cohort. Disease assessments for patients who had at least one disease assessment following treatment with Compound (A) are shown in Table 21. All patients who responded have EGFR exon 20 insertion mutations and had previously been treated with platinum-based chemotherapy, EGFR TKIs, or PD-1 inhibitors.

[3] = Single rising dose study in healthy subjects (safety, food effect, relative bioavailability); type: in vivo, human
Text: This study is a randomized, double-blind, placebo-controlled single rising dose study (Part 1), followed by an open-label, crossover evaluation of the effects of a low-fat meal on the pharmacokinetics (PK) of Compound (A) (Part 2), and a crossover evaluation of the relative bioavailability of Compound (A) drug-in-capsule (DiC) (test) versus DiC (reference) in healthy subjects (Part 3).

[4] = Clinical pharmacokinetics in NSCLC patients, oral once daily; type: in vivo, human; settings: for half-life: human, plasma, po
Procedure: Clinical PK data includes data from the dose escalation portion of the study. Compound (A) has been administered orally once per day in 28-day treatment cycles at dose levels of 5, 10, 20, 40, 80, 120, 160 and 180 mg. […] The dosage identified in milligrams (mg) is based on the weight of the freebase of Compound (A). FIGS. 33, 34 show the mean plasma concentration-time profiles of Compound (A) following oral administration of Compound (A) once per day in NSCLC patients.
Compound (A) is administered orally on an empty stomach once per day continuously.

[5] = Thermodynamic aqueous solubility studies (de-ionized water, 24 h, HPLC concentration, filtrate pH, XRPD of solid); settings: pH of filtrate after 24 h slurry in de-ionized water (pH 6.97), ambient temperature
Procedure: (§1) The resulting solid material was isolated by centrifugation and analyzed by XRPD, while the filtrate was analyzed by HPLC for concentration determination. The pH of the resulting filtrate was also determined.

[6] = Stability stress testing (ambient light, 40° C./75% RH, 80° C., 7 days; XRPD and HPLC purity); type: physicochemical
Procedure: Approximately 5 mg of the appropriate samples were placed into 2 mL clear glass vials and the vials were all stored open under the conditions of ambient light, 40° C./75% RH, and 80° C. for 7 days, respectively. The ambient light sample was left open on the bench at room temperature. The 80° C. sample was placed open into an 80° C. oven.

[7] = Vapour sorption analysis (GVS, hygroscopicity); type: physicochemical; settings: % uptake at 90% RH
Procedure: Approximately 10 mg of the sample was placed into a mesh vapor sorption balance pan and loaded into an IGASorp Moisture Sorption Analyzer balance by Hiden Analytical. The sample was subjected to a ramping profile from 40 to 90% relative humidity (RH) at 10% increments to 90% RH, maintaining the sample at each step until a stable weight had been achieved (98% step completion). After completion of the sorption cycle, the sample was dried using the same procedure (initially from 90% RH to 0% RH and finally taken back to the starting point of 40% RH). The sorption/desorption profiles were then repeated to give a double-cycle plot. The weight changes during the sorption/desorption cycles were plotted, allowing for the hygroscopic nature of the sample to be determined.

[8] = physchem; settings: pH 6.97, water, thermodynamic from solid
Procedure: as §1

[9] = 80 mg QD cohort, oral, NSCLC patients, RECIST v1.1
[10] = 120 mg QD cohort, oral, NSCLC patients, RECIST v1.1

C=CC(=O)Nc1cc(Nc2ncc(C(=O)OC(C)C)c(-c3cn(C)c4ccccc34)n2)c(OC)cc1N(C)CCN(C)C [Compound (A), propan-2-yl 2-[5-(acryloylamino)-4-{[2-(dimethylamino)ethyl](methyl)amino}-2-methoxyanilino]-4-(1-methyl-1H-indol-3-yl)pyrimidine-5-carboxylate]
maximum tolerated dose (MTD) ([1]; QD, oral, NSCLC patients, dose escalation 5-180 mg QD and 40 mg BID): 160 mg | discontinuation for adverse event (AE), patients ([1]; human, in vivo): 15.4% | patients with Grade 3 TEAEs ([1]; human, in vivo): 51.9% | patients with at least 1 treatment-emergent serious adverse event (SAE) ([1]; human, in vivo): 38.5% | patients with at least 1 treatment-related SAE ([1]; human, in vivo): 9.6% | patients with at least 1 treatment-related adverse event (TRAE) ([1]; human, in vivo): 78.8% | patients with at least one TEAE ([1]; human, in vivo): 88.5% | dose limiting toxicities ([1]; in vivo): Two dose limiting toxicities, both pneumonitis | Disease assessments: SD (stable disease), number of patients ([2]; 40 mg QD cohort, oral, NSCLC patients, RECIST v1.1): 3 patients | additional patients with SD ([2]; 80 mg QD and above, including 1 at 180 mg QD): 6 patients | objective response ([2]; 80 mg QD and above, 2 confirmed PR at 80 mg QD, 1 confirmed complete response at 120 mg QD, 2 PR awaiting confirmation at 160 mg QD): 5 patients | Disease assessments: PR (partial response), number of patients [2, 9]: 2 patients | Disease assessments: SD (stable disease), number of patients [2, 9]: 2 patients | Disease assessments: CR (complete response), number of patients [2, 10]: 1 patient | Disease assessments: SD (stable disease), number of patients [2, 10]: 2 patients | Disease assessments: SD (stable disease), number of patients ([2]; 160 mg QD cohort, oral, NSCLC patients, RECIST v1.1): 1 patient | Disease assessments: PR (partial response), number of patients ([2]; 160 mg QD cohort, oral, NSCLC patients, RECIST v1.1, unconfirmed): 2 patients ^a | discontinuation for documented progressive disease (PD) per RECIST version 1.1, patients ([2]; 52 patients, data cut): 26.9% | progressive disease (PD) as best response ([2]; of 14 evaluable patients, 40 mg n=3, 80 mg n=1, 120 mg n=1): 5 patients | stable disease (SD) as best response ([2]; of 14 evaluable patients, 40 mg n=3, 80 mg n=2, 120 mg n=1): 6 patients | partial response (PR) as best response ([2]; of 14 evaluable patients, 80 mg n=2 both confirmed, 120 mg single PR awaiting confirmation): 3 patients | response (PR, CR) versus prior treatment ([2]; prior therapies including EGFR TKIs and immuno-oncology agents): observed in patients regardless of prior treatment therapies | SAEs [3]: No SAEs were reported | safety and tolerability ([3]; up to a single oral dose of 160 mg): safe and well tolerated | accumulation, peak/trough ratio and molar metabolite/parent Cav ratios of the two active metabolites versus dose ([4]; 5 to 180 mg QD, suggesting no obvious trend of time-dependent inhibition or auto-induction): independent of Compound (A) dose | AUC24 dependence on dose ([4]; Cycle 2 Day 1, multiple dose, 5 to 180 mg QD): increased in an approximately dose-proportional manner | AUC0-24,ss dependence on dose ([4]; NSCLC patients, daily oral doses 5-120 mg, first results): increased in a dose-proportional manner | half-life ([4]; NSCLC patients, daily oral doses 5-120 mg, first results, read-out: effective t1/2 (converted)): ~960 min | half-life ([4]; oral QD, NSCLC patients, read-out: effective half-life based on accumulation, geometric mean (converted)): ~900 min | half-life ([4]; oral QD, NSCLC patients, read-out: effective half-life based on accumulation, range): 360 to 1620 min | accumulation in AUC24 ([4]; oral QD): approximately 1.5 fold

C=CC(=O)Nc1cc(Nc2ncc(C(=O)OC(C)C)c(-c3cn(C)c4ccccc34)n2)c(OC)cc1N(C)CCN(C)C.Cc1ccc(S(=O)(=O)O)cc1 [Tosylate, isopropyl 2-((5-acrylamido-4-((2-(dimethylamino)ethyl) (methyl)amino)-2-methoxyphenyl)amino)-4-(1-methyl-1H-indol-3-yl)pyrimidine-5-carboxylate tosylate]
pH at Saturation [5]: 6.38 | XRPD after storage ([6]; 7 days, all storage conditions (ambient light, 40° C./75% RH, 80° C.)): No change under all storage | Purity, 40° C./75% RH ([6]; HPLC purity after 7 days, open vial, 40° C./75% RH): 99.4 | Purity, 80° C. ([6]; HPLC purity after 7 days, open vial, 80° C.): 99.4 | Purity, Ambient light ([6]; HPLC purity after 7 days, open vial, ambient light, room temperature): 99.5 | Input purity ([6]; HPLC purity before stress storage): 99.7 | Chemical Stability ([6]; summary in Table 17): Stable | GVS (Hygroscopicity) [7]: 1.4% | solubility at 24 h [8]: 400 µg/mL
